As usually defined, the IC50 is the point on the concentration scale where inhibition reaches its midpoint. A higher IC50 goes with a need for much substance.

These results are taken from patent US10899781B2, “Platinum complex, its preparation and therapeutic use” (City University of Hong Kong, priority 2018, dated 2021).

Data set [1] concerns A2780cisR (platinum-resistant A2780 cells). Kind of data set: Cytotoxicity, MTT assay. Type of data set: cell-based, human. Particulars: for IC50: A2780cisR, 8 h treatment. On the procedure: (§1) The biological activity of Complex A was subsequently evaluated. A2780 cells were maintained in Roswell Park Memory Institution (RPMI) 1640 medium supported with 10% FBS, 2 mM L-glutamine, and 100 unit/mL penicillin/streptomycin. MCF-7 cells were cultured in Dulbecco's modified Eagle's medium supported with 10% FBS and 100 unit/mL penicillin/streptomycin. MRC-5 cells were maintained in Eagle's minimum essential medium supported with 10% FBS, 1 mM sodium pyruvate, 2 mM L-glutamine, 1 mM non-essential amino acid and 100 unit/mL penicillin/streptomycin. All the cells were incubated in a humidified incubator at 37° C. with 5% CO2
(§2) Cytotoxicity test was performed by exposing the cancer cells with Complex A. The viability of cancer cells exposed was evaluated by means of MTT assay. Cells were seeded in 96-well plates at a density of 3,000 cells per well and incubated until the cell confluency reached 50%. Then, the medium was removed and replaced with fresh medium containing different concentrations of complexes with 1% DMF. After 8 h, the medium was aspirated, the well was washed with PBS for twice, and Earle's balanced salt solution (EBSS) was added. […] The EBSS was removed, and fresh complete cell culture medium was added to each well. After 40 h, the medium was changed to serum-free medium containing 1 mg/mL MTT. After 2 h additional incubation, the medium was removed, and DMSO (200 μL) was delivered to each well to dissolve the formed purple formazan. The absorbance at 570 nm and 730 nm of each well was measured by using a microplate reader (BioTek PowerWave XS).
(§3) The cytotoxicity of Complex A was then evaluated, using oxaliplatin and PPA as controls. Cells were treated with the compounds for 8 h, followed by irradiation or incubation in the dark, and the cell viability was measured by the MTT assay after 40 h. Complex A is non-toxic to the tested cells in the dark, and is very active under irradiation.

For data set [2], the system named is A2780 ovarian carcinoma cells. Kind of data set: Cytotoxicity, MTT assay. Type of data set: cell-based, human. Particulars: 8 h treatment. On the procedure:
as §1, §2, §3
In general terms: Formazan colour is commonly taken as a measure of viable cells.

The test system of the next data set is MCF-7 cells. Kind of data set: Cytotoxicity, MTT assay. Type of data set: cell-based, human. On the procedure: as §1, §2, §3
Data set [3] concerns MRC-5 normal human lung fibroblasts. Description: Cytotoxicity, MTT assay. Type of data set: cell-based. Particulars: in dark, MTT at 40 h. On the procedure: as §1
Cytotoxicity test was performed by exposing the cancer cells with Complex A. The viability of cancer cells exposed was evaluated by means of MTT assay. Cells were seeded in 96-well plates at a density of 3,000 cells per well and incubated until the cell confluency reached 50%. Then, the medium was removed and replaced with fresh medium containing different concentrations of complexes with 1% DMF. […] The absorbance at 570 nm and 730 nm of each well was measured by using a microplate reader (BioTek PowerWave XS).
The cytotoxicity of Complex A was then evaluated, using oxaliplatin and PPA as controls. Cells were treated with the compounds for 8 h, followed by irradiation or incubation in the dark, and the cell viability was measured by the MTT assay after 40 h. […]

The nature of another data set: Fluorescence lifetime. The following applies: in DMF. It counts as physicochemical. An excerpt:
The inventors further investigated the mechanism of the reduction Complex A. No overlap was observed between the absorbance spectra of PPA and the dihydroxyl Pt(IV) compound [Pt(DACH)(OH)2(ox)]. Therefore, direct energy transfer may not occur between PPA and the Pt(IV) center. […] The normalized fluorescence intensity of PPA and Complex A is identical, and the fluorescence lifetime of Complex A is 7 ns in DMF, which is the same as PPA. […] Since PPA is able to generate reactive oxygen species (ROS) and singlet oxygen through type I and type II photo process, respectively, the inventors used a hydroxyl radical scavenger, DMSO, and a singlet oxygen scavenger, NaN3, to investigate the electron transfer process. […] Thus, without to be bound by theory, the inventors believe that hydroxy radical is involved in the reaction, and the elimination of hydroxy radical may accelerate the reaction. Furthermore, it was observed that the reduction rate is related to the water content in the system.

Data set [4] can be described thus: Photoactivation (photo-reduction) of Complex A under 650 nm irradiation, HPLC. It counts as physicochemical. Particulars: mixture of the compound and PPA in the presence of ascorbate. As to the method: FIG. 3 is a combined RP-HPLC chromatogram showing the intensity of Complex A and PPA after 10 μM Complex A in PBS buffer containing 1% DMF and 1 mM ascorbate was subject to irradiation at 650 nm with a power density of 7 mW/cm^2 for different time periods (from 0 min to 30 min). Peak 1 corresponds to Complex A, and Peak 2 corresponds to PPA.
FIG. 4 is a plot showing the amount of Complex A and PPA after subjecting to irradiation at 650 nm calculated from the results in FIG. 3.
The photoactivation property of Complex A was investigated. Buffer solution containing 10 μM Complex A with 1 mM ascorbate in a quartz cuvette was irradiated with LED lamp (650 nm, 7 mW/cm^2) under stirring. Samples were analyzed by HPLC. […] After irradiation for 10 min, 81% of Complex A was reduced, and most of the complex was reduced within 30 min. Irradiation of Complex A without the presence of ascorbate also leads to the release of PPA and oxaliplatin, but the reaction speed is much slower.
The inventors further investigated the mechanism of the reduction Complex A. No overlap was observed between the absorbance spectra of PPA and the dihydroxyl Pt(IV) compound [Pt(DACH)(OH)2(ox)]. […] The normalized fluorescence intensity of PPA and Complex A is identical, and the fluorescence lifetime of Complex A is 7 ns in DMF, which is the same as PPA. […]

Another data set deals with A2780 cells. Kind of data set: Cellular accumulation of platinum by ICP-MS. It counts as cell-based, human. The following applies: after 8 h. As to the method: FIG. 5 is a plot showing the accumulation of Complex A in A2780 cells after treatment with 0.5 μM Complex A for 1 to 12 h.
The inventors first tested the cellular accumulation of Complex A by ICP-MS. Platinum accumulation in A2780 cells increases dramatically over time before 8 h and very slowly increases over time after 8 h. Thus, an incubation time of 8 h is selected for the following biological assays.
The cellular accumulation levels of Pt in A2780 cells treated with Complex A and oxaliplatin after 8 h are 6.4±1.2 and 0.9±0.1 ng Pt/106 cells, respectively. […] The cellular distribution of Complex A was also observed.

Where [5] appears, read: Homo sapiens, light or radiation study, with irradiation at 650 nm (7 mW/cm^2) for 15 min, MTT at 40 h after irradiation.
Setting [6] is: Homo sapiens, in the dark, MTT at 40 h.
[7] abbreviates: with irradiation at 650 nm (7 mW/cm^2) for 15 min, MTT at 40 h after irradiation.

With `C=Cc1c(C)c2cc3nc(c4c5[nH]c(cc6nc(cc1[nH]2)C(C)=C6CC)c(C)c5C(=O)C4)[C@@H](CCC(=O)O)[C@@H]3C` [PPA, pyropheophorbide a], the IC50 is 0.23 ± 0.01 µM in data set [1] (setting [5]); > 10 µM in data set [1] (setting [6]); > 10 µM in data set [2] (setting [6]); 0.34 ± 0.05 µM in data set [2] (setting [5]); > 10 µM in the data set with MCF-7 cells (Homo sapiens, MCF7, 8 h treatment, in the dark, MTT at 40 h); 0.2 ± 0.02 µM in the data set on MCF-7 cells (Homo sapiens, MCF7, light or radiation study, 8 h treatment, with irradiation at 650 nm (7 mW/cm^2) for 15 min, MTT at 40 h after irradiation). For the same compound, the IC50 in data set [3] (Homo sapiens, MRC5, 8 h treatment) is > 10 µM. In addition, the fluorescence lifetime in the data set “Fluorescence lifetime” is recorded as 7 ns.

As for “[Pt(DACH)(OH)2(ox)] [[(Pt(DACH)(OH)2(ox))]]”, the reduction under irradiation entry in data set [4] is “cannot be reduced”.

As to `O=C1[O][Pt]2([NH][C@@H]3CCCC[C@H]3[NH]2)[O]C1=O` [Oxaliplatin, oxaliplatin], the IC50 in data set [1] (in the dark, MTT at 40 h) is 162 ± 9 µM; in data set [1] (setting [7]), 185 ± 8 µM; in data set [2] (in the dark, MTT at 40 h) it was > 40 µM; in data set [2] (setting [7]), > 40 µM; in the data set on MCF-7 cells (8 h treatment, in the dark, MTT at 40 h) it was 110 ± 4.3 µM; in the data set on MCF-7 cells (8 h treatment, with irradiation at 650 nm (7 mW/cm^2) for 15 min, MTT at 40 h after irradiation), 78.6 ± 8.7 µM. Also, the IC50 in data set [3] (8 h treatment) came out at 122 ± 5.2 µM. In data set [1] (IC50 towards cisplatin-resistant cells divided by IC50 towards non-resistant cells (A2780cisR / A2780)), the resistant factor amounted to 2.7. Also, in the data set on A2780 cells, the “cellular accumulation levels of Pt” value amounted to 0.9±0.1 ng Pt/106 cells.
